Experimental data taken from patent publication US5696117A, “Benzoxazine antimicrobial agents” (Ortho Pharmaceutical Corporation, priority 1995, dated 1997).

Target: T1, Kinase A and SpoOF (Bacillus subtilis, UniProt P16497)
T1 construct: made in house; host or cells: recombinant E. coli (overexpression)
T1 sequence (P16497 1-606): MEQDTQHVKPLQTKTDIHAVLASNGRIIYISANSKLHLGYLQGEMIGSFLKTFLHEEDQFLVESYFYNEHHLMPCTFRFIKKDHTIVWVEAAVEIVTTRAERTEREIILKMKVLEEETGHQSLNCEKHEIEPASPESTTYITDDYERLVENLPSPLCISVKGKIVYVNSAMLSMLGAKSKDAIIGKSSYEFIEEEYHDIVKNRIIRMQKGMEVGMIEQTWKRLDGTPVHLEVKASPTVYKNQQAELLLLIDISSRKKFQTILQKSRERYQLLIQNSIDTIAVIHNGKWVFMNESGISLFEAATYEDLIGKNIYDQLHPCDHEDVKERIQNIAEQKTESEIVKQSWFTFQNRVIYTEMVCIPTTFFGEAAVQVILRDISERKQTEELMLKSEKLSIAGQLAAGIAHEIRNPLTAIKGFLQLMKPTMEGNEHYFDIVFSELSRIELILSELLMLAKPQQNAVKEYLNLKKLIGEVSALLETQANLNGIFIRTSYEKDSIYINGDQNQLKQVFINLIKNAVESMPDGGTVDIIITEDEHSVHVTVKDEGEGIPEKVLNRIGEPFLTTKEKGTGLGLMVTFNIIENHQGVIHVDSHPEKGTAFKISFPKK
Test: Autophosphorylation of Kinase A and Transphosphorylation of SpoOF Assay (HPK in vitro assay)
Type: biochemical
Settings: inhibition of KinA autophosphorylation / SpoOF transphosphorylation, inhibitor concentrations from 1 to 500 μM
Protocol: 1. Autophosphorylation of Kinase A and Transphosphorylation of SpoOF Assay
To study the effect of the compounds of the present invention on the signal transduction process in bacteria, the inhibiting effect of the compounds on the sporulation operon proteins Kinase A and SpoOF was examined. Specifically, the inhibition of autophosphorylation of Kinase A and the transphosphorylation of SpoOF was determined in the following assays. The SpoOF response regulator is the primary substrate for phosphorylation by the protein kinase, Kin A, involved in the sporulation process in bacteria. See D. Burbulys, K. A. Trach, J. A. Hoch, Cell, 64, 545-552 (1991). SpoOF and KinA were prepared from recombinant E. coli overexpressing the proteins (J. Cavanagh et al, Amino Acids, 6, 131-140 (1994) and references therein).
The following stock reagents were either prepared and used promptly or stored at the indicated temperature:
8× Salts: 2M KCl (5 mL), 1M MgCl2 (800 mL), 1M CaCl2 (100 mL), 10 mg/mL phenylmethylsulfonyl fluoride (200 mL), 1M dithioreitol (50 mL), 0.25M Na2 EDTA (32 mL) and H2 O 3.82 mL (-20° C.)
5× Loading Dye: 0.5M TRIS-HCl-pH 6.8 (7.5 mL), 10% SDS (2 mL) 0.1% bromophenol blue (0.5 mL), 100% glycerol (3 mL) and 12.5M 2-mercaptoethanol (0.3 mL)
1-1.3 mg/mL KinA:15 mM TRIS-HCl, pH 8.0, 6 mM KCl; 4 mM 2-mercaptoethanol; 40% glycerol (-20° C.)
1 mg/mL SpoOF: 17.5 mM TRIS-HCl, pH 8.0; 0.7 mM KCl; 0.7 mM MgCl2; 0.7 mM CaCl2; 5mM 2-mercaptoethanol; 30% Glycerol (-20° C.)
5% Stacking Gel: 40% 29:1 acrylamide:bis acrylamide (1.25 mL), 0.5M TRIS-HCl, pH 6.8 (2.5 mL), 10% SDS (0.1 mL), D-H2 O (6.15 mL) 10% ammonium persulfate (100 mL) and TEMED (25 mL)
SDS Running Buffer: TRIS-BASE (3.02 g), glycine (14.4 g) SDS (1 g), D-H2 O (to 1 L)
The reaction mixture was prepared from 8× Salts (87 μL), 1M TRIS, pH 8 (118 μL), 50% glycerol (63 μL), SpoOF (14.1 μL) and KinA (7.0 μL). Microcentrifuge tubes were charged with the reaction mixture (18.5 μL) and a 1.0 mM solution of the test compound in 5% DMSO (18.5 μL), and incubated for 15 min on ice. 100 mM ATP solution (3.0 μl, containing 625 μCi [^32 P]ATP) was added, and the mixture left for 10 minutes at room temperature. The reaction was quenched with 5× loading dye (10 μL per tube) and the samples were loaded on a prepared 5% Stacking Gel, or stored on dry ice until ready for use. The prepared wells were filled with SDS Running Buffer, samples were loaded into the wells, and 80 volts were applied to the gel until the dye front reached the bottom of the stacking gel. The voltage was then increased to 250 volts until electrophoresis was complete. Radioactive bands in the gel corresponding to phosphorylated KinA and SpoOF were imaged and quantitated with a phosphoimager.
If either enzyme was inhibited (as evidenced by the absence of labelled protein in the developed gel), an IC50 was calculated by running the assay with a range of inhibitor concentrations from 1 to 500 μM. After electrophoresis of the reaction mixtures, percent inhibition was determined by measuring the concentration of radioactive phosphorus with a phosphoimager and calculating the values using a software program (BioRad Molecular Analyst). IC50 values of less than 500 μM are considered active.

Row | SMILES | IC50
1 | Cl.N=C(N)NCCc1ccc(OCCC2Oc3cc([N+](=O)[O-])ccc3N(Cc3cccc(Cl)c3)C2=O)cc1 (stereo not shown) [Compound 84, 3,4-Dihydro-4-(3-chlorobenzyl)-2-{2-[4-(2-guanidinoethyl)phenoxy]ethyl}-7-nitro-3-oxo-2H-1,4-benzoxazine Monohydrochloride] | 30 µM
2 | Cl.N=C(N)NCCc1ccc(OCCC2Oc3cc([N+](=O)[O-])ccc3N(Cc3ccccc3Cl)C2=O)cc1 (stereo not shown) [Compound 87, 4-(2-Chlorobenzyl)-3,4-dihydro-2-{2-[4-(2-guanidinoethyl)phenoxy]ethyl}-7-nitro-3-oxo-2H-1,4-benzoxazine Monohydrochloride] | 11 µM
3 | N=C(N)NCCc1ccc(OCCC2Oc3cc([N+](=O)[O-])ccc3N(Cc3cccc([N+](=O)[O-])c3)C2=O)cc1 (stereo not shown) [Compound 91, 3,4-Dihydro-2-{2-[4-(2-guanidinoethyl)phenoxy]ethyl}-7-nitro-4-(3-nitrobenzyl)-3-oxo-2H-1,4-benzoxazine] | 33 µM
4 | N=C(N)NCCc1ccc(OCCC2Oc3ccccc3N(Cc3cccc([N+](=O)[O-])c3)C2=O)cc1 (stereo not shown) [Compound 95, 3,4-Dihydro-2-{2-[4-(2-guanidinoethyl)phenoxy]ethyl}-4-(3-nitrobenzyl)-3-oxo-2H-1,4-benzoxazine] | 32 µM
5 | N=C(N)NCCc1ccc(OCCC2Oc3cc([N+](=O)[O-])ccc3N(Cc3ccc([N+](=O)[O-])cc3)C2=O)cc1 (stereo not shown) [Compound 97, 3,4-Dihydro-2-{2-[4-(2-guanidinoethyl)phenoxy]ethyl}-7-nitro-4-(4-nitrobenzyl)-3-oxo-2H-1,4-benzoxazine] | 53 µM
6 | COc1ccc2c(c1)OC(CCOc1ccc(CCNC(=NC(=O)OC(C)(C)C)NC(=O)OC(C)(C)C)cc1)C(=O)N2Cc1cccc([N+](=O)[O-])c1 (stereo not shown) [Compound 99, 2-{2-[4-(2-(N,N'-Bis-tert-butoxycarbonylguanidino)ethyl)phenoxy]ethyl}-3,4-dihydro-7-methoxy-4-(3-nitrobenzyl)-3-oxo-2H-1,4-benzoxazine] | 343 µM
7 | COc1ccc2c(c1)OC(CCOc1ccc(CCNC(=N)N)cc1)C(=O)N2Cc1cccc([N+](=O)[O-])c1 (stereo not shown) [Compound 100, 3,4-Dihydro-2-{2-[4-(2-guanidinoethyl)phenoxy]ethyl}-7-methoxy-4-(3-nitrobenzyl)-3-oxo-2H-1,4-benzoxazine] | 32 µM
8 | COC(=O)c1ccc(CN2C(=O)C(CCOc3ccc(CCN)cc3)Oc3ccccc32)cc1 (stereo not shown) [Compound 104, 2-{2-[4-(2-Aminoethyl)phenoxy]ethyl}-4-(4-carbomethoxybenzyl)-3,4-dihydro-3-oxo-2H-1,4-benzoxazine] | 24 µM
9 | COC(=O)c1cccc(CN2C(=O)C(CCOc3ccc(CCN)cc3)Oc3ccccc32)c1 (stereo not shown) [Compound 106, 2-{2-[4-(2-Aminoethyl)phenoxy]ethyl}-4-(3-carbomethoxybenzyl)-3,4-dihydro-3-oxo-2H-1,4-benzoxazine] | 166 µM
10 | NCCc1ccc(OCCC2Oc3ccccc3N(Cc3ccc(C(=O)O)cc3)C2=O)cc1 (stereo not shown) [Compound 110, 4-{3,4-Dihydro-2-[2-(4-(2-aminoethyl)phenoxy)]ethyl-3-oxo-2H-1,4-benzoxazin-4-yl}methylbenzoic Acid] | 324 µM
11 | CC(C)(C)OC(=O)NCCc1ccc(OCCC2Oc3ccccc3N(Cc3cccc(C(=O)O)c3)C2=O)cc1 (stereo not shown) [Compound 111, 3-{3,4-Dihydro-2-[2-(4-(2-(-t-butoxycarbonylamino)ethyl)phenoxy)]ethyl-3-oxo-2H-1,4-benzoxazin-4-yl}methylbenzoic Acid] | 113 µM
12 | NCCc1ccc(OCCC2Oc3ccccc3N(Cc3cccc(C(=O)O)c3)C2=O)cc1 (stereo not shown) [Compound 112, 3-{3,4-Dihydro-2-[2-(4-(2-aminoethyl)phenoxy)]ethyl-3-oxo-2H-1,4-benzoxazin-4-yl}methylbenzoic Acid] | 254 µM
13 | O=C(O)CCc1cccc(OCCC2Oc3ccccc3N(Cc3cccc(Cl)c3)C2=O)c1 (stereo not shown) [Compound 127, 3-[3-[2-{4-(3-Chlorobenzyl)-3,4-dihydro-3-oxo-2H-1,4-benzoxazin-2-yl}ethoxy]phenyl]propionic Acid] | 251 µM
14 | O=C1NC(=O)C(c2ccc(OCCC3Oc4ccccc4N(Cc4cccc(Cl)c4)C3=O)cc2)S1 (stereo not shown) [Compound 134, 5-[4-{2-[4-(3-Chlorobenzyl)-3,4-dihydro-3-oxo-2H-1,4-benzoxazin-2-yl]ethoxy}phenyl]thiazolidine-2,4-dione] | 23 µM
15 | N=C(N)NCCc1ccc(OCCC2Oc3ccccc3N(Cc3ccc([N+](=O)[O-])cc3)C2=O)cc1 (stereo not shown) [Compound 139, 3,4-Dihydro-2-{2-[4-(2-guanidinoethyl)-phenoxy]ethyl}-4-(4-nitrobenzyl)-3-oxo-2H-1,4-benzoxazine] | 24 µM
16 | COc1ccc(CN2C(=O)C(CCOc3ccc(CCNC(=NC(=O)OC(C)(C)C)NC(=O)OC(C)(C)C)cc3)Oc3ccccc32)cc1 (stereo not shown) [Compound 140, 2-{2-[4-[2-(N,N-Bis-tert-butoxycarbonylguanidino)ethyl]phenoxy]ethyl}-3,4-dihydro-4(4-methoxybenzyl)-3-oxo-2H-1,4-benzoxazine] | 343 µM
17 | NCCCc1ccc(OCCC2Oc3ccccc3N(Cc3ccc(Cl)cc3)C2=O)cc1 (stereo not shown) [Compound 142, 2-[2-[4-(3-Aminopropyl)phenoxy]ethyl]-4-(4-chlorobenzyl)-3,4-dihydro-3-oxo-2H-1,4-benzoxazine] | 42 µM
18 | CC(C)(C)OC(=O)N=C(NCCc1ccc(OCCC2Oc3cc([N+](=O)[O-])ccc3N(Cc3ccccc3[N+](=O)[O-])C2=O)cc1)NC(=O)OC(C)(C)C (stereo not shown) [Compound 143, 2-{2-[4-(2-(N,N-Bis-tert-butoxycarbonylguanidino)ethyl)phenoxy]ethyl}-3,4-dihydro-7-nitro-4-(2-nitrobenzyl) 3-oxo-2H-1,4-benzoxazine] | 73 µM
19 | CC(C)(C)OC(=O)NCCc1ccc(OCCC2Oc3ccccc3N(Cc3cccc(Cl)c3)C2=O)cc1 (stereo not shown) [Compound 144, 2-[2-[4-(2-(t-Butoxycarbonylamino)ethyl)phenoxy]ethyl]-4-(3-chlorobenzyl)-3,4-dihydro-3-oxo-2H-1,4-benzoxazine] | 348 µM
